Format in all cases: physicochemical
A short description of series [1]: Solubility of monomer in water and ethanol. The procedure: (§1) The solubility of monomer 1 in water and ethanol was determined and the pH value of a 20% solution of the monomer in a 1:1 mixture of ethanol and water measured.
The nature of series [2]: pH value (acid strength) of a 20% monomer solution. Conditions: text: 1:1 mixture of ethanol and water. The procedure: as §1
The nature of series [3]: Hydrolytic stability by weekly 1H-NMR of stored solution. Conditions: 20% solution in 1:1 water/ethanol, stored at 37° C., 8-week investigation period. On the procedure: Monomer 1 is dissolved in a 1:1 mixture of water and ethanol and a 20% solution is stored at 37° C. The ^1H-NMR spectrum of the solution is recorded weekly.
Setting [4] is: water, read-out: water solubility.

2 compounds from patent US6350839B2, “Hydrolysis-stable and polymerizable acrylophosphonic acid monoesters” (Ivoclar Vivadent AG, priority 2000, dated 2002) can be followed below.

The structures appear in SMILES notation. ≈ marks a conversion by molar mass, not a printed value. Like-named read-outs stand apart in the source and are kept apart here.

As to `C=C(COCCP(=O)(O)O)C(=O)O` [Comparison monomer, 2-[4-dihydroxyphosphoryl-2-oxa-butyl]-acrylic acid, reference compound], in series [1] (ethanol), the solubility in ethanol entry is reported as “practically insoluble”. Also, in series [1] (setting [4]), the solubility (as a rule, the dissolved amount per volume that the medium holds) was approximately 400 mg/mL (≈ 1900 mM). In addition, in series [2], the “pH value of a 20% solution” value is recorded as 1.25.
For the compound `C=C(COCCP(=O)(O)OC)C(=O)O` [Monomer 1, 2-[4-hydroxymethoxyphosphoryl-2-oxa-butyl]-acrylic acid], the “hydrolytic stability (change in 1H-NMR spectrum)” value in series [3] was “no change in the spectrum”. For the same compound, the solubility is more than 500 mg/mL in series [1] (ethanol, organic solvent or mixture, read-out: solubility in ethanol) and more than 500 mg/mL in series [1] (setting [4]). In series [2], the “pH value of a 20% solution” value was 0.61.
